Assay results taken from US20060229338A1, “2,3'-bipyridines derivatives as selective cox-2 inhibitors” (priority 2003, published 2006).

Tests used:
[1] = target: T1, COX-1 (Homo sapiens, UniProt P23219); test: COX-1 activity in human whole blood (TXB2 by EIA after calcium ionophore A23187); format: cell-based; conditions: 24 h at 37° C., A23187 25 μM, TXB2 levels
T1 construct: Fresh blood from healthy volunteers; from tissue; host or cells: fresh heparinized human whole blood from healthy volunteers
Protocol: (§1) COX-1 and COX-2 Activities in Human Whole Blood
Fresh blood from healthy volunteers who had not taken any non-steroidal anti-inflammatory drugs for at least 7 days prior to blood extraction was collected in heparinized tubes (20 units of heparin per ml). For the COX-1 activity determination, 500 μl aliquots of blood were incubated with either 5 μl vehicle (dimethylsulphoxide) or 5 μl of a test compound for 24 h at 37° C. Calcium ionophore A23187 (25 μM) was added 20 min before stopping the incubation. Plasma was separated by centrifugation (10 min at 13000 rpm) and kept at −30° C. until TXB2 levels were measured using an enzyme immunoassay kit (EIA).
The effect of the compounds was evaluated by incubating each compound at five to six different concentrations with triplicate determinations. IC50 values were obtained by non-linear regression using InPlot, GraphPad software on an IBM computer.

[2] = target: T2, COX-2 (Homo sapiens, UniProt P35354); test: COX-2 activity in human whole blood (PGE2 by EIA after LPS induction); format: cell-based; conditions: for IC50: LPS 10 μg/ml, 24 h at 37° C., PGE2 levels
T2 construct: incubated in the presence of LPS (10 μg/ml) for 24 h at 37° C. in order to induce the COX-2 expression; from tissue; host or cells: fresh heparinized human whole blood from healthy volunteers, LPS-stimulated
T2 sequence (P35354 18-604): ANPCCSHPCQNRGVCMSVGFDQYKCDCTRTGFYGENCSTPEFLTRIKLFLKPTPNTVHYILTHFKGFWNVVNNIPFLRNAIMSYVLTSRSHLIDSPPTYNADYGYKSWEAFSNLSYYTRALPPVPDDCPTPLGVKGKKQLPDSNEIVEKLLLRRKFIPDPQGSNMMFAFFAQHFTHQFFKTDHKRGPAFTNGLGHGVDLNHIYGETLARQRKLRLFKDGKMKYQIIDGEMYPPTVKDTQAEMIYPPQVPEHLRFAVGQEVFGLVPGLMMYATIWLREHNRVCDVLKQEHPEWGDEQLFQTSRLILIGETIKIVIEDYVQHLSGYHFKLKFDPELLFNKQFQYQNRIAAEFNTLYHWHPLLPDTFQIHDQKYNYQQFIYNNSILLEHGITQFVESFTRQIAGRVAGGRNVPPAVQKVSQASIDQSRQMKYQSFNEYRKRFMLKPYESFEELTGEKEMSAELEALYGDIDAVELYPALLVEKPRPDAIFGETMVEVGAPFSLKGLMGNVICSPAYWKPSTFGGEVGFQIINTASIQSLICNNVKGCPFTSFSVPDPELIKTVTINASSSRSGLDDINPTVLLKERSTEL
Protocol: as §1
For the COX-2 activity determination, 500 μl aliquots of blood were incubated in the presence of LPS (10 μg/ml) for 24 h at 37° C. in order to induce the COX-2 expression (Patriagnani et al., J. Pharm. Exper. Ther. 271; 1705-1712 (1994)). Plasma was separated by centrifugation (10 min at 13000 rpm) and kept at −30° C. until PGE2 levels were measured using an enzyme immunoassay kit (EIA). The effects of inhibitors were studied by incubating each compound (5 μl aliquots) at five to six different concentrations with triplicate determinations in the presence of LPS for 24 hours. IC50 values were obtained by non-linear regression using InPlot, GraphPad software on an IBM computer.

T1 sequence (P23219 24-599): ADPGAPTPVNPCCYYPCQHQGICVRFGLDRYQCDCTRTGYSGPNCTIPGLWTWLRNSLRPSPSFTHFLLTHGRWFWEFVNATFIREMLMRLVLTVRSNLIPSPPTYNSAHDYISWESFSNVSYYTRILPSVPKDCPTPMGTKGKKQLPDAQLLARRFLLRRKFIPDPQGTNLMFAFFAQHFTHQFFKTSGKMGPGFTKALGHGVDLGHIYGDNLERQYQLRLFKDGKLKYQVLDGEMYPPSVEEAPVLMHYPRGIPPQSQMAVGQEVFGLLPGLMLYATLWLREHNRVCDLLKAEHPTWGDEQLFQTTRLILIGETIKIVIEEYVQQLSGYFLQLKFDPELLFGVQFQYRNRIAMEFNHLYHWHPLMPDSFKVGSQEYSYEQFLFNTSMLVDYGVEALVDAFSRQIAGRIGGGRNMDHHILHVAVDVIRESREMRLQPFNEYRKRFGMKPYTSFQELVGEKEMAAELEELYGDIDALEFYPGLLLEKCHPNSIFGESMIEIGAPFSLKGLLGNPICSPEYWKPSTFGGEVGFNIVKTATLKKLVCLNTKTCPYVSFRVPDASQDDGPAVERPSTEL

Row | IC50 [1] [µM] | IC50 [2] [µM] | Ratio COX-1/COX-2 ([2]; ratio of COX-1/COX-2 IC50 values) | Structure (SMILES)
1 | 77.8 | 3.5 | – | Cc1ccc(-c2ncc(Cl)cc2-c2ccc([S+](C)[O-])cc2)cn1 (single isomer, unassigned) [5-chloro-6′methyl-3-[4-(methylsulfinyl)phenyl]-2,3′-bipyridine (Enantiomer 1b), 5-Chloro-6′-methyl-3-[4-(methylsulfinyl)phenyl]-2,3′-bipyridine (Enantiomer 1b)]
2 | 20.2 | – | – | Cc1ccc(-c2ncc(Cl)cc2-c2ccc([S+](C)[O-])cc2)cn1 (single isomer, unassigned) [5-chloro-6′methyl-3-[4-(methylsulfinyl)phenyl]-2,3′-bipyridine (Enantiomer 1a), 5-Chloro-6′-methyl-3-[4-(methylsulfinyl)phenyl]-2,3′-bipyridine (Enantiomer 1a)]
3 | 45.5 | 3.7 | 12.3 | Cc1ccc(-c2ncc(Cl)cc2-c2ccc([S+](C)[O-])cc2)cn1 (racemic) [5-chloro-6′methyl-3-[4-(methylsulfinyl)phenyl]-2,3′-bipyridine (racemate), 5-Chloro-6′-methyl-3-[4-(methylsulfinyl)phenyl]-2,3′-bipyridine]
